Patent publication US6706663B2, “Herbicidal 3-heterocyclic substituted benzisothiazole and benzisoxazole compounds” (Wyeth, priority 2000, dated 2004)

Legend:
[1] = test system: ABUTH (Abutilon theophrasti); test: Postemergence herbicidal evaluation; format: in vivo, Medic.; conditions: postemergence
Procedure, shortened: (§1)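 Visual 0–9 injury scores versus control plants, covering stand, vigour, malformation, size, chlorosis and general appearance, taken four to five weeks post-spray and averaged over replicate tests. Plants were sprayed at roughly two weeks old and held on greenhouse benches.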

[2] = test system: AMBEL (Ambrosia artemisifolia); test: Postemergence herbicidal evaluation; format: in vivo, L.; conditions: postemergence
Procedure, shortened: as §1

[3] = test system: CASOB (Cassia obtusifolia); test: Postemergence herbicidal evaluation; format: in vivo, L.; conditions: postemergence
Procedure, shortened: as §1

[4] = test system: CHEAL (Chenopodium album); test: Postemergence herbicidal evaluation; format: in vivo, L.; conditions: postemergence
Procedure, shortened: as §1

[5] = test system: IPOHE (Ipomoea hederacea); test: Postemergence herbicidal evaluation; format: in vivo, (L.) Jacq.; conditions: postemergence
Procedure, shortened: as §1

[6] = test system: ECHCG (Echinochloa crus-galli); test: Postemergence herbicidal evaluation; format: in vivo, (L.) Beau; conditions: postemergence
Procedure, shortened: as §1

[7] = test system: ORYSAT (Rice, Tebonnet); test: Postemergence herbicidal evaluation; format: in vivo, Oryza sativa, (L.) Tebonnet; conditions: postemergence
Procedure, shortened: as §1

[8] = test system: TRZAWR (Wheat, Winter, cv Riband); test: Postemergence herbicidal evaluation; format: in vivo, Triticum aestivum; conditions: postemergence
Procedure, shortened: as §1

[9] = test system: ZEAMX (Corn, Field); test: Postemergence herbicidal evaluation; format: in vivo, Zea mays, L.; conditions: postemergence
Procedure, shortened: as §1

[10] = test system: ABUTH (Abutilon theophrasti); test: Preemergence herbicidal evaluation; format: in vivo, Medic.; conditions: rated 4-5 weeks after treatment
[11] = test system: AMBEL (Ambrosia artemisifolia); test: Preemergence herbicidal evaluation; format: in vivo, L.; conditions: rated 4-5 weeks after treatment
Procedure, shortened: (§2)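 Preemergence soil spray, aq. acetone; greenhouse; visual 0–9 score vs control at 4–5 wk.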

[12] = test system: CASOB (Cassia obtusifolia); test: Preemergence herbicidal evaluation; format: in vivo, L.; conditions: rated 4-5 weeks after treatment
Procedure, shortened: as §2

[13] = test system: CHEAL (Chenopodium album); test: Preemergence herbicidal evaluation; format: in vivo, L.; conditions: rated 4-5 weeks after treatment
Procedure, shortened: as §2

[14] = test system: ORYSAT (Rice, Tebonnet); test: Preemergence herbicidal evaluation; format: in vivo, Oryza sativa, (L.) Tebonnet; conditions: rated 4-5 weeks after treatment
[15] = test system: TRZAWR (Wheat, Winter, cv Riband); test: Preemergence herbicidal evaluation; format: in vivo, Triticum aestivum; conditions: rated 4-5 weeks after treatment
Procedure, shortened: as §2

[16] = test system: ECHORC (Echinochloa oryzoides); test: Flooded paddy, preemergence weed control; format: in vivo, Echinochloa oryzoides (Ard.) Fritsch.; conditions: rated 3-4 weeks after treatment, 0-9 rating scale
Procedure, shortened: (§3)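 Visual 0–9 ratings versus controls scored stand, vigor, malformation, size, chlorosis and overall appearance. Plants grew from seeds or propagating organs sown 0.5 cm deep in silt loam, with water held 1.5–3 cm above the soil for the whole test under greenhouse care.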

[17] = test system: CYPSE (Cyperus serotinus); test: Flooded paddy, preemergence weed control; format: in vivo, Rottb.; conditions: rated 3-4 weeks after treatment, 0-9 rating scale
Procedure, shortened: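 Seeds or propagules were planted 0.5 cm deep in silt loam and flooded to 1.5–3 cm. Compounds in 50/50 v/v aqueous/acetone were pipetted into the flood water at about 0.0080 to 0.1250 kg/ha. After 3–4 weeks in the greenhouse, effect was rated visually on a 0–9 scale versus untreated control.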

[18] = test system: SAGPY (Sagittaria pygmaea); test: Flooded paddy, preemergence weed control; format: in vivo, L.; conditions: rated 3-4 weeks after treatment, 0-9 rating scale
Procedure, shortened: as §3

[19] = test system: ORYSAT (Rice, Tebonnet); test: Flooded paddy, post-transplant rice tolerance; format: in vivo, Oryza sativa, (L.) Tebonnet; conditions: flooded paddy, post-transplant rice, rated 3-4 weeks after treatment, 0-9 rating scale
Procedure, shortened: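 Ten-day-old seedlings, 2/pot, silt loam; flood kept 1.5–3 cm over soil; herbicide applied post-transplant; greenhouse; score 0–9 visual vs control.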

**Q.** Which results are given for `C[C@@H]1C[C@H](C)OC(c2nsc3ccc(-n4c(=O)cc(C(F)(F)F)n(C)c4=O)cc23)O1` (stereo partly drawn) [Compound 51, 3-[3-[(4R,6S)-4,6-dimethyl-m-dioxan-2-yl]-1,2-benzisothiazol-5-yl]-1-methyl-6-(trifluoromethyl)uracil]?
**A.** ABUTH herbicidal rating ([1]; rate 0.0320 kg/ha): 9.0; ABUTH herbicidal rating ([1]; rate 0.0620 kg/ha): 9.0; AMBEL herbicidal rating ([2]; rate 0.0320 kg/ha): 9.0; AMBEL herbicidal rating ([2]; rate 0.0620 kg/ha): 9.0; CASOB herbicidal rating ([3]; rate 0.0320 kg/ha): 2.0; CASOB herbicidal rating ([3]; rate 0.0620 kg/ha): 6.0; CHEAL herbicidal rating ([4]; rate 0.0320 kg/ha): 7.0; CHEAL herbicidal rating ([4]; rate 0.0620 kg/ha): 8.0; IPOHE herbicidal rating ([5]; rate 0.0320 kg/ha): 9.0; IPOHE herbicidal rating ([5]; rate 0.0620 kg/ha): 9.0; ECHCG herbicidal rating ([6]; rate 0.0320 kg/ha): 3.0; ECHCG herbicidal rating ([6]; rate 0.0620 kg/ha): 3.0; ORYSAT herbicidal rating ([7]; rate 0.0320 kg/ha): 3.0; ORYSAT herbicidal rating ([7]; rate 0.0620 kg/ha): 4.0; TRZAWR herbicidal rating ([8]; rate 0.0320 kg/ha): 3.5; TRZAWR herbicidal rating ([8]; rate 0.0620 kg/ha): 4.0; ZEAMX herbicidal rating ([9]; rate 0.0320 kg/ha): 5.0; ZEAMX herbicidal rating ([9]; rate 0.0620 kg/ha): 5.5; Preemergence herbicidal rating ABUTH ([10]; Rate 0.0620 kg/ha): 9.0; Preemergence herbicidal rating ABUTH ([10]; Rate 0.1250 kg/ha): 9.0; Preemergence herbicidal rating ABUTH ([10]; Rate 0.2500 kg/ha): 9.0; Preemergence herbicidal rating AMBEL ([11]; Rate 0.0620 kg/ha): 9.0; Preemergence herbicidal rating AMBEL ([11]; Rate 0.1250 kg/ha): 9.0; Preemergence herbicidal rating AMBEL ([11]; Rate 0.2500 kg/ha): 9.0; Preemergence herbicidal rating CASOB ([12]; Rate 0.0620 kg/ha): 9.0; Preemergence herbicidal rating CASOB ([12]; Rate 0.1250 kg/ha): 9.0; Preemergence herbicidal rating CASOB ([12]; Rate 0.2500 kg/ha): 9.0; Preemergence herbicidal rating CHEAL ([13]; Rate 0.0620 kg/ha): 9.0; Preemergence herbicidal rating CHEAL ([13]; Rate 0.1250 kg/ha): 9.0; Preemergence herbicidal rating CHEAL ([13]; Rate 0.2500 kg/ha): 9.0; Preemergence herbicidal rating ORYSAT ([14]; Rate 0.0620 kg/ha): 8.5; Preemergence herbicidal rating ORYSAT ([14]; Rate 0.1250 kg/ha): 9.0; Preemergence herbicidal rating ORYSAT ([14]; Rate 0.2500 kg/ha): 9.0; Preemergence herbicidal rating TRZAWR ([15]; Rate 0.0620 kg/ha): 9.0; Preemergence herbicidal rating TRZAWR ([15]; Rate 0.1250 kg/ha): 9.0; Preemergence herbicidal rating TRZAWR ([15]; Rate 0.2500 kg/ha): 9.0; herbicidal rating, ECHORC ([16]; rate 0.0080 kg/ha): 8.0; herbicidal rating, ECHORC ([16]; rate 0.0320 kg/ha): 9.0; herbicidal rating, ECHORC ([16]; rate 0.1250 kg/ha): 9.0; herbicidal rating, CYPSE ([17]; rate 0.0320 kg/ha): 9.0; herbicidal rating, CYPSE ([17]; rate 0.1250 kg/ha): 9.0; herbicidal rating, SAGPY ([18]; rate 0.0080 kg/ha): 0.0; herbicidal rating, SAGPY ([18]; rate 0.0320 kg/ha): 7.0; herbicidal rating, SAGPY ([18]; rate 0.1250 kg/ha): 9.0; herbicidal rating, ORYSAT (rice tolerance) ([19]; rate 0.0080 kg/ha): 7.0; herbicidal rating, ORYSAT (rice tolerance) ([19]; rate 0.0320 kg/ha): 9.0; herbicidal rating, ORYSAT (rice tolerance) ([19]; rate 0.1250 kg/ha): 9.0
